Assay results: patent US6056958A, “Method of treatment of arterial and venous thromboembolic disorders” (Dupont Pharmaceuticals, priority 1997, dated 2000)
Non-standard residues stand in square brackets, D forms with d. Residues, ends and D or L forms follow the SMILES beside them. 3Amb = NCc1cccc(C(=O)O)c1

Columns and labels:
Platelet Aggregation [1] = assay: In Vivo Platelet Aggregation Inhibition in Dog; settings: IV
Platelet Aggregation [2] = assay: Platelet Aggregation Assay (in vitro, ADP-induced, platelet-rich plasma); assay type: cell-based, mongrel dogs or human
Experimental: Platelet Aggregation Assay
Venous blood was obtained from anesthetized mongrel dogs or from healthy human donors who were drug-free and aspirin-free for at least two weeks prior to blood collection. Blood was collected into citrated Vacutainer tubes. The blood was centrifuged for 15 minutes at 150× g (850 RPM in a Sorvall RT6000 Tabletop Centrifuge with H-1000 B rotor) at room temperature, and platelet-rich plasma (PRP) was removed. The remaining blood was centrifuged for 15 minutes at 1500× g ([…]) at room temperature, and platelet-poor plasma (PPP) was removed. Samples were assayed on an aggregometer (PAP-4 Platelet Aggregation Profiler), using PPP as the blank (100% transmittance). 200 μL of PRP (5×10^8 platelets/mL) were added to each micro test tube, and transmittance was set to 0%. 20 μl of ADP (10 μM) was added to each tube, and the aggregation profiles were plotted (% transmittance versus time). Test agent (20 μL) was added at different concentrations prior to the addition of the platelet agonist. Results are expressed as % inhibition of agonist-induced platelet aggregation.

GPIIb/IIIa receptor = target: T1, GPIIb/IIIa receptor (Homo sapiens, UniProt P05106+P08514); assay: GPIIb/IIIa Receptor-Biotinylated Fibrinogen Binding Assay; settings: inhibition of fibrinogen binding to purified GPIIb/IIIa
T1 construct: The GPIIb/IIIa receptor was purified from human platelets; from tissue; host or cells: human platelets (purified according to D'Souza et al., J. Biol. Chem. 1990, 265:3440-3446)
Excerpt: Compounds may be tested for their ability to block binding of vitronectin to the αv /β3 receptor and to block the binding of fibrinogen to GPIIb/IIIa receptor in the αv /β3 -Biotinylated Vitronectin Binding Assay and GPIIb/IIIa Receptor-Biotinylated Fibrinogen Binding Assay described below.
GPIIb/IIIa Receptor-Biotinylated Fibrinogen Binding Assay
The GPIIb/IIIa receptor was purified from human platelets according to D'Souza et al. (J. Biol. Chem., 1990, 265:3440-3446). The purified GPIIb/IIIa protein was coated on 96 well plates and the competition between test compound and biotinylated fibrinogen for binding to the plate-immobilized GPIIb/IIIa receptor was determined by ELISA as described below. Bound fibrinogen was detected using an avidin-alkaline phosphatase conjugate and paranitrophenol detection at […]. For IC50 determination, test agent was added at various concentrations to plates coated with purified GPIIb/IIIa protein which was followed by the addition of biotinylated fibrinogen. The inhibitory binding constant (Ki) of test agents were calculated under this assay system using standard Michaelis-Menten analysis. The IC50 is the concentration of test substance needed to block 50% of the fibrinogen binding to the GPIIb/IIIa receptor.
The following reagents may be used in the GPIIb/IIIa-fibrinogen binding ELISA:
purified GPIIb/IIIa (148.8 μg/mL);
biotinylated fibrinogen (~1 mg/mL or 3000 nM);
anti-biotin alkaline phosphatase conjugate (Sigma no. A7418);
flat-bottom, high binding, 96-well plates (Costar Cat. no. 3590);
phosphatase substrate (Sigma 104) (40 mg capsules);
bovine serum albumin (BSA) (Sigma no. A3294);
Alkaline Phosphatase buffer--0.1 M glycine-HCl, 1 mM MgCl2.6H2 O, 1 mM ZnCl2, pH 10.4;
Binding buffer--20 mM Tris-HCl, 150 mM NaCl, 1 mM CaCl2.2H2 O, 0.02% NaN3, pH 7.0;
Buffer A--50 mM Tris-HCl, 100 mM NaCl, 2 mM CaCl2.2H2 O, 0.02% NaN3, pH 7.4;
Buffer A+3.5% BSA (Blocking buffer);
Buffer A+0.1% BSA (Dilution buffer);
The following method steps are used in the GPIIb/IIIa-fibrinogen binding ELISA:
Coat plates with GPIIb/IIIa in Binding buffer (125 ng/100 μL/well) overnight at 4° C. (Leave first column uncoated for non-specific binding). Cover and freeze plates at -70° C. until used. Thaw plate 1 hour at room temperature or overnight at 4° C. Discard coating solution and wash once with 200 μL Binding buffer per well. Block plate 2 hours at room temperature on shaker with 200 μl Buffer A+3.5% BSA (Blocking buffer) per well. Discard Blocking buffer and wash once with 200 μL Buffer A+0.1% BSA (Dilution buffer) per well. Pipet 11 μL of test compound (10× the concentration to be tested in Dilution buffer) into duplicate wells. […] Read plate at 405 nm. Blank against non-specific binding (NSB) well. % Inhibition is calculated as 100-(Test Compound Abs/Total Abs)×100.

T1 sequence (P08514 32-887 limits assumed): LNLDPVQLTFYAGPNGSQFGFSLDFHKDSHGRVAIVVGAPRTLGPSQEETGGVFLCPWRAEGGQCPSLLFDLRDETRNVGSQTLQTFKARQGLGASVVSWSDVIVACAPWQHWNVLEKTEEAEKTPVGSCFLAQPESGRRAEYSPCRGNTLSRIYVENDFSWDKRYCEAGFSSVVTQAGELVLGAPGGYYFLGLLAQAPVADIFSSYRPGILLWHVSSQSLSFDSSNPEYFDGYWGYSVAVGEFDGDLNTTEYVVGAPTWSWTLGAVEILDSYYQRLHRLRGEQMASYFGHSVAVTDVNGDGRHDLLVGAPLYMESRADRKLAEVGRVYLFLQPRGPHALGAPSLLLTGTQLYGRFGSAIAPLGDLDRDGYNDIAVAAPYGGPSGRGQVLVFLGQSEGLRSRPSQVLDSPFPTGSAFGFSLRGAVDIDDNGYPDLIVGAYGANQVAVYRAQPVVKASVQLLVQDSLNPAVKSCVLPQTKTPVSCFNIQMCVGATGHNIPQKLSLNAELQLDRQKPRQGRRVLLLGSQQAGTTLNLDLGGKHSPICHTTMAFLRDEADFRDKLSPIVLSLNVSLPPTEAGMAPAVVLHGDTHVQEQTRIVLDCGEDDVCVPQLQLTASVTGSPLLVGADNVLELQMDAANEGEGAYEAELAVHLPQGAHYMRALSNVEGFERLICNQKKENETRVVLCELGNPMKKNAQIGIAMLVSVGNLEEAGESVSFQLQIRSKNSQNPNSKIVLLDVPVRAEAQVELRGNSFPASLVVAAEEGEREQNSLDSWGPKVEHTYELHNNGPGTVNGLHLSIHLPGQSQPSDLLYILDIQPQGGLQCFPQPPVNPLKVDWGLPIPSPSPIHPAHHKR
T1 sequence (P08514 891-1039 partner limits assumed): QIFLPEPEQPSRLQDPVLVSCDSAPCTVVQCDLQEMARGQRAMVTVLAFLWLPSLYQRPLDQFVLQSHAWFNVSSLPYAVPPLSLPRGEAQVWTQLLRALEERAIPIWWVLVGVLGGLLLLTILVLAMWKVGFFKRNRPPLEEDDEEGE
T1 sequence (P05106 27-788): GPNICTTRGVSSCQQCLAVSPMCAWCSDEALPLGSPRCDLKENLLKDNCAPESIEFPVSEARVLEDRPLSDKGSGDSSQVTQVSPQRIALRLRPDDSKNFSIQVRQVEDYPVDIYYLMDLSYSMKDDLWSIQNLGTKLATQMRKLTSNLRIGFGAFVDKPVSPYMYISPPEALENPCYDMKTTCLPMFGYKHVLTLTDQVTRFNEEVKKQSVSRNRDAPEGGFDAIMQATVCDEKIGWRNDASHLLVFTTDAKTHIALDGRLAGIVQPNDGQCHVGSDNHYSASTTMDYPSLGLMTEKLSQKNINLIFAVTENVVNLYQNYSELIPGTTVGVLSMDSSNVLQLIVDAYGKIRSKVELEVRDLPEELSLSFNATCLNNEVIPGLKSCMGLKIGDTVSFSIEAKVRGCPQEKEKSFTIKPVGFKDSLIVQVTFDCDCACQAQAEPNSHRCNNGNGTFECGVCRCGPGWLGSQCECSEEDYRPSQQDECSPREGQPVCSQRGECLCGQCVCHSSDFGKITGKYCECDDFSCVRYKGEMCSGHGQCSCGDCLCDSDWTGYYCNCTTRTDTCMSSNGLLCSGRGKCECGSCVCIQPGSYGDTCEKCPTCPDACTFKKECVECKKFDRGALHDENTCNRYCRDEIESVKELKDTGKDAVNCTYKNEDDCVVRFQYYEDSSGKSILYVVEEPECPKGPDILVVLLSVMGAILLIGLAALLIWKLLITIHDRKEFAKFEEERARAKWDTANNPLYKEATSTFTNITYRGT

C[C@@H]1NC(=O)c2cccc(c2)CNC(=O)[C@H](CC(=O)O)NC(=O)CNC(=O)[C@H](CCCNC(=N)N)NC1=O [Compound A, cyclo-(Ala-Arg-Gly-Asp-Mamb)] (cyclo(RGD[3Amb]A)) was tested, and the “Platelet Aggregation Inhibition (%)” value (Platelet Aggregation [1]; 1 mg/kg) was 0-10%, the “Platelet Aggregation Inhibition (%)” value (Platelet Aggregation [1]; 3 mg/kg) was 10-20% and the “Platelet Aggregation Inhibition (%)” value (Platelet Aggregation [1]; 10 mg/kg) was 30-50%. For the same compound, the IC50 (Platelet Aggregation [2]) was 18 µM and the IC50 (GPIIb/IIIa receptor) was 0.408 µM.

In the case of N=C(N)NCCC[C@@H]1NC(=O)[C@@H]2CCCN2C(=O)c2cccc(c2)CNC(=O)[C@H](CC(=O)O)NC(=O)CNC1=O [Compound B, cyclo-(Pro-Arg-Gly-Asp-Mamb)] (cyclo(RGD[3Amb]P)), the “Platelet Aggregation Inhibition (%)” value (Platelet Aggregation [1]; 1 mg/kg) is reported as 0-10%, the “Platelet Aggregation Inhibition (%)” value (Platelet Aggregation [1]; 3 mg/kg) is reported as 0-10% and the “Platelet Aggregation Inhibition (%)” value (Platelet Aggregation [1]; 10 mg/kg) is reported as 10-20%. It also gave an IC50 (Platelet Aggregation [2]) of 44 µM and an IC50 (GPIIb/IIIa receptor) of 1.52 µM.
